Holding throughout (type): functional
What all share (details): read-out: GI

In assay [1] the test system is Candida albicans. Briefly: Antifungal activity against Candida albicans ATCC 10231 assessed as inhibition of fungal growth at 200 uM.
The test system of assay [2] is Cryptococcus neoformans. Briefly: Antifungal activity against Cryptococcus neoformans ATCC 32264 assessed as inhibition of fungal growth at 50 uM.
The test system of assay [3] is Candida albicans. Briefly: Antifungal activity against Candida albicans ATCC 10231 assessed as inhibition of fungal growth at 100 uM.
Assay [4] concerns Cryptococcus neoformans. Briefly: Antifungal activity against Cryptococcus neoformans ATCC 32264 assessed as inhibition of fungal growth at 200 uM.
Assay [5] relates to Candida albicans. The experiment in a line: Antifungal activity against Candida albicans ATCC 10231 assessed as inhibition of fungal growth at 12.5 uM.
Assay [6] deals with Cryptococcus neoformans. Briefly: Antifungal activity against Cryptococcus neoformans ATCC 32264 assessed as inhibition of fungal growth at 100 uM.
Assay [7] concerns Candida albicans. Briefly: Antifungal activity against Candida albicans ATCC 10231 assessed as inhibition of fungal growth at 50 uM.
In assay [8] the test system is Cryptococcus neoformans. Briefly: Antifungal activity against Cryptococcus neoformans ATCC 32264 assessed as inhibition of fungal growth at 25 uM.
In assay [9] the test system is Candida albicans. The experiment in a line: Antifungal activity against Candida albicans ATCC 10231 assessed as inhibition of fungal growth at 25 uM.
The subject of assay [10] is Cryptococcus neoformans. The experiment in a line: Antifungal activity against Cryptococcus neoformans ATCC 32264 assessed as inhibition of fungal growth at 6.25 uM.
The test system of assay [11] is Cryptococcus neoformans. Briefly: Antifungal activity against Cryptococcus neoformans ATCC 32264 assessed as inhibition of fungal growth at 12.5 uM.
In assay [12] the test system is Candida albicans. The experiment in a line: Antifungal activity against Candida albicans ATCC 10231 assessed as inhibition of fungal growth at 6.25 uM.

As for `C[C@@H]1[C@H](O)[C@@H](C)/C=C/C=C/C=C/C=C/C=C/C=C/C=C/[C@H](O[C@@H]2O[C@H](C)[C@@H](O)[C@H](N)[C@@H]2O)C[C@@H]2O[C@](O)(C[C@@H](O)C[C@@H](O)[C@H](O)CC[C@@H](O)C[C@@H](O)CC(=O)O[C@H]1C)C[C@H](O)[C@H]2C(=O)O` [AMPHOTERICIN B], the inhibition of growth at 200 µM in assay [1] and in assay [4] was 100% throughout. Moreover, the inhibition of growth at 50 µM in assay [2] and in assay [7] was 100% in each case. The inhibition of growth at 100 µM in assay [3] and in assay [6] was 100% in each case. Further, the inhibition of growth at 12.5 µM in assay [5] and in assay [11] was 100% throughout. Also, the inhibition of growth at 25 µM in assay [8] and in assay [9] was 100% each time. Besides, the inhibition of growth at 6.25 µM in [10] and in assay [12] was 100% in each case.
For the compound `CC[C@H](C)[C@H](NC(=O)[C@H](CCCCN)NC(=O)[C@@H](NC(=O)[C@H](CCC(N)=O)NC(=O)[C@@H](N)CCCNC(=N)N)[C@@H](C)CC)C(=O)N[C@@H](Cc1c[nH]c2ccccc12)C(=O)N[C@@H](Cc1ccccc1)C(=O)N[C@@H](CCC(N)=O)C(=O)N[C@@H](CC(N)=O)C(=O)N[C@@H](CCCNC(=N)N)C(=O)N[C@@H](CCCNC(=N)N)C(=O)N[C@@H](CCSC)C(=O)N[C@@H](CCCCN)C(=O)N[C@@H](Cc1c[nH]c2ccccc12)C(=O)N[C@@H](CCCCN)C(=O)N[C@@H](CCCCN)C(N)=O` [PENETRATIN], the inhibition of growth at 200 µM in assay [1] and in assay [4] was 100% in each case. The figures for the inhibition of growth at 50 µM in assay [2] and in assay [7] were 100% and 95%, respectively. Moreover, the inhibition of growth at 100 µM in assay [3] and in assay [6] was 100% each time. Besides, the inhibition of growth at 12.5 µM in [5] was 4%; in [11], 90%. In addition, the inhibition of growth at 25 µM in [8] worked out at 100%; in [9], 91%. For the same compound, the inhibition of growth at 6.25 µM came out at 60% in assay [10] and 0% in assay [12].
Take `CC[C@H](C)[C@H](NC(=O)[C@H](CCCCN)NC(=O)[C@@H](NC(=O)[C@H](CCC(N)=O)NC(=O)[C@H](CCCNC(=N)N)NC(=O)[C@H](Cc1c[nH]c2ccccc12)NC(=O)[C@H](CCCNC(=N)N)NC(=O)[C@H](Cc1ccccc1)NC(=O)[C@@H](N)Cc1cnc[nH]1)[C@@H](C)CC)C(=O)N[C@@H](Cc1c[nH]c2ccccc12)C(=O)N[C@@H](Cc1ccccc1)C(=O)N[C@@H](CCC(N)=O)C(=O)N[C@@H](CC(N)=O)C(=O)N[C@@H](CCCNC(=N)N)C(=O)N[C@@H](CCCNC(=N)N)C(=O)N[C@@H](CCSC)C(=O)N[C@@H](CCCCN)C(=O)N[C@@H](Cc1c[nH]c2ccccc12)C(=O)N[C@@H](CCCCN)C(=O)N[C@@H](CCCCN)C(N)=O`: the inhibition of growth at 200 µM in assay [1] and in assay [4] was 100% in each case. Also, the figures for the inhibition of growth at 50 µM in assay [2] and in assay [7] were 87.3% and 93.4%, respectively. Moreover, the inhibition of growth at 100 µM in [3] and in assay [6] was 100% each time. In addition, the inhibition of growth at 12.5 µM in assay [5] came out at 3.85%; in [11] it was 74.3%. For the same compound, the inhibition of growth at 25 µM was determined as 85.9% in [8] and 4.86% in assay [9]. For the same compound, the results for the inhibition of growth at 6.25 µM in [10] and in assay [12] were 51% and 0.9%, respectively.
In the case of H-KKWKMRRNQFWIKIQR-NH2, the inhibition of growth at 200 µM in assay [1] and in assay [4] was 100% each time. Also, the figures for the inhibition of growth at 50 µM in assay [2] and in assay [7] were 99% and 100%, respectively. The inhibition of growth at 100 µM in assay [3] and in assay [6] was 100% each time. Also, the inhibition of growth at 12.5 µM in [5] turned out to be 12%; in assay [11] it was 89.5%. For the same compound, the inhibition of growth at 25 µM in assay [8] turned out to be 94.1%; in assay [9] it was 25.8%. Besides, the inhibition of growth at 6.25 µM in assay [10] was found to be 55.9%; in assay [12] it was 0%.
For `CC(=O)N1CCN(c2ccc(OCC3COC(Cn4ccnc4)(c4ccc(Cl)cc4Cl)O3)cc2)CC1` (configuration not stated) [KETOCONAZOLE], the inhibition of growth at 200 µM in assay [1] and in assay [4] was 100% each time. The inhibition of growth at 50 µM in [2] and in assay [7] was 100% throughout. The inhibition of growth at 100 µM in [3] and in assay [6] was 100% in each case. For the same compound, the inhibition of growth at 12.5 µM in assay [5] and in [11] was 100% each time. In addition, the inhibition of growth at 25 µM in assay [8] and in assay [9] was 100% each time. For the same compound, the inhibition of growth at 6.25 µM in assay [10] and in assay [12] was 100% in each case.
Turning to `CC[C@H](C)[C@H](NC(=O)[C@H](CCCCN)NC(=O)[C@@H]1CCCN1C(=O)[C@H](CCC(N)=O)NC(=O)[C@@H](N)CCCNC(=N)N)C(=O)N[C@H](Cc1c[nH]c2ccccc12)C(=O)N[C@@H](Cc1ccccc1)C(=O)N1CCC[C@H]1C(=O)N[C@@H](CC(N)=O)C(=O)N[C@@H](CCCNC(=N)N)C(=O)N[C@@H](CCCNC(=N)N)C(=O)N[C@@H](CCCCN)C(=O)N1CCC[C@H]1C(=O)N[C@@H](Cc1c[nH]c2ccccc12)C(=O)N[C@@H](CCCCN)C(=O)N[C@@H](CCCCN)C(N)=O`, the inhibition of growth at 200 µM in [1] and in assay [4] was 100% each time. Further, the inhibition of growth at 50 µM in [2] came to 100%; in assay [7] it was 41.4%. The inhibition of growth at 100 µM in [3] and in assay [6] was 100% in each case. The inhibition of growth at 12.5 µM in assay [5] came to 6.1%; in [11], 100%. In addition, the inhibition of growth at 25 µM in assay [8] stood at 100%; in [9] it was 15.4%. Besides, the inhibition of growth at 6.25 µM came to 79.9% in assay [10] and 0% in assay [12].

For the origin of these results see ChEMBL document CHEMBL1208760, “New antifungal peptides. Synthesis, bioassays and initial structure prediction by CD spectroscopy” (2010).
